Test results from patent US20250206745A1, “PYRROLOPYRIDAZINE DERIVATIVES AND RELATED USES” (NodThera Limited, priority 2023, published 2025).
pIC50: −log10 of the molar value. Counter-ions that a name gives are not always drawn.

Tests used:
[1] = tested on: IL-1β release upon NLRP3 activation in peripheral blood mononuclear cells (PBMC); experiment: PBMC IC50 Determination Assay; assay type: cell-based; conditions: Homo sapiens; inhibition of IL-1β release; PBMC primed with LPS, stimulated with ATP or nigericin; ELISA or HTRF
Description: The compounds of the present disclosure were tested for their inhibitory activity against IL-1β release upon NLRP3 activation in peripheral blood mononuclear cells (PBMC).
Protocol A. PBMC were isolated from buffy coats by density gradient centrifugation on Histopaque-1077 (Sigma, cat no. 10771). Isolated cells were seeded into the wells of a 96-well plate and incubated for 3 h with lipopolysaccharide (LPS). Following medium exchange, the compounds of the present disclosure were added (a single compound per well) and the cells were incubated for 30 min. Next, the cells were stimulated either with ATP (5 mM) or nigericin (10 μM) for 1 h and the cell culture media from the wells were collected for further analysis.
The release of IL-1β into the media was determined by a quantitative detection of IL-1β in the media using an IL-1β enzyme-linked immunosorbent assay (ELISA) Ready-SET-Go!, eBioscience cat. No. 88-7261-88. Briefly, in a first step, high affinity binding plates (Corning, Costar 9018 or NUNC Maxisorp Cat No. 44-2404) were coated overnight at 4° C. with specific capture antibody included in the kit (anti-human IL-1β ref. 14-7018-68). Subsequently, plates were blocked with blocking buffer for 1 h at room temperature (rt) and after washing with a buffer (PBS with 0.05% Tween-20) incubated with protein standard and culture media. After 2 h of incubation at rt, plates were washed and incubated with biotinylated detection antibody included in the kit (anti-human IL-1β Biotin ref. 33-7110-68) for 1 h at rt. Plates were washed and incubated with HRP-streptavidin for 30 min at rt and washed again. The signal was developed after addition of 3,3′,5,5′-tetramethylbenzidine-peroxidase (TMB) until colour appeared and the reaction was stopped by 2 M H2SO4. A microplate spectrophotometer (BioTek) was used to detect signals with 450 nm. The detection range of IL-1β ELISA was […].
Protocol B. PBMC were isolated from buffy coats by density gradient centrifugation on Histopaque-1077 (Sigma, cat no. 10771). Isolated cells were seeded into the wells (280,000 cells/well) of a 96-well plate and incubated for 3 h with lipopolysaccharide (LPS, 1 μg/mL diluted 1000× from a 1 mg/mL stock solution). The compounds of the present disclosure were added (a single compound per well) and the cells were incubated for 30 min. Next, the cells were stimulated with ATP (5 mM final concentration diluted 20× from a 100 mM stock solution) for 1 h and the cell culture media from the wells were collected for further analysis.
The release of IL-1β into the media was determined by quantitative detection of IL-1β in the media using HTRF®, CisBio cat. No. 62HIL1BPEH. Briefly, cell culture supernatant were dispensed directly into the assay plate containing antibodies labelled with the HTRF® donor and acceptor. A microplate spectrophotometer (BMG) was used to detect signals at 655 nm and 620 nm. The detection range of IL-1β HTRF® was 39-6500 pg/mL.

[2] = tested on: IL-1β release upon NLRP3 activation in phorbol 12-myristate 13-acetate (PMA)-differentiated THP-1 cells; experiment: THP-1 IC50 Determination Assay; assay type: cell-based; conditions: Homo sapiens, inhibition of IL-1β release, LPS, nigericin, ELISA
Description: The compounds of the present disclosure were tested for their inhibitory activity against IL-1β release upon NLRP3 activation in phorbol 12-myristate 13-acetate (PMA)-differentiated THP-1 cells.
THP-1 cells stored in liquid nitrogen were thawed in a 37° C. water bath. The cells were added into complete RPMI 1640 medium (FBS (56 mL), 100× Penicillin-Streptomycin (5.6 mL) and 0.05 mM 2-Mercaptoethanol in RPMI 1640 Medium (500 mL)) and centrifuged for 5 min at 1000 rpm. The supernatant was discarded and the cells resuspended into new cell culture medium for culturing. Cells were cultured in cell culture medium and passaged every 3-4 days to maintain cell density between 4×10^5 and 1.5×10^6 cells/mL. The cells were diluted to 0.8×10^6 cells/mL and grown in a T150 flask with PMA (final concentration 5 ng/mL). The flask was incubated in a 37° C. incubator with a humidified atmosphere of 5% CO2 for −40 hours. After −40 hours of PMA differentiation, the flask was washed with DPBS. Cells were digested with Trypsin LE for about 5 min at room temperature, and digestion was terminated using complete RPMI 1640 medium. Cells were centrifuged and resuspended (1000 rpm, 3 min). The supernatant was discarded and cells washed with DPBS, centrifuged and resuspended cells (1000 rpm, 5 min). Cells were plated at 30,000 cells/well in a 384-well PP plate and treated with 25 ng/mL LPS solution diluted in serum-free medium (45 μL). The plate was incubated in a 37° C. incubator with a humidified atmosphere of 5% CO2 for 2 hours. Compounds (from 10 mM DMSO solution) were dispensed and serially diluted by 1:3 eight times, with final 0.5% DMSO concentration. NLRP3 inflammasome was activated with nigericin (5 μL), the plate was centrifuged (1000 rpm, 30 s) and incubated in a 37° C. incubator with a humidified atmosphere of […] for 2 hours. 35 μL/well of supernatant was removed and IL-1β levels determined by ELISA assay (Mabtech 3416-1H-20) according to the manufacturer's instructions.

| pIC50 [2] | Structure (SMILES) | pIC50 [1] |
| --- | --- | --- |
| 6.52 to 7.00 | Cc1cc(Cl)cc(O)c1-c1cc2ccn(CC3CCN(CC(F)F)CC3)c2nn1 [Compound 10, 5-Chloro-2-(7-{[1-(2,2-difluoroethyl)piperidin-4-yl]methyl}-7H-pyrrolo[2,3-c]pyridazin-3-yl)-3-methylphenol hydrochloride] | 6.52 to 7.00 |
| 6.52 to 7.00 | Cc1cc(Cl)cc(O)c1-c1cc2ccn(CC3CCN(C)C(=O)C3)c2nn1 (stereo not shown) [Compound 11, 4-{[3-(4-Chloro-2-hydroxy-6-methylphenyl)-7H-pyrrolo[2,3-c]pyridazin-7-yl]methyl}-1-methylpiperidin-2-one] | 6.52 to 7.00 |
| 6.52 to 7.00 | Cc1cc(Cl)cc(O)c1-c1cc2ccn(CCN3CCOCC3)c2nn1 [Compound 12, 5-Chloro-3-methyl-2-{7-[2-(morpholin-4-yl)ethyl]-7H-pyrrolo[2,3-c]pyridazin-3-yl}phenol hydrochloride] | 6.00 to 6.52 |
| 6.00 to 6.52 | Cc1cc(Cl)cc(O)c1-c1cc2ccn(CCN3CCN(C)CC3)c2nn1 [Compound 13, 5-Chloro-3-methyl-2-{7-[2-(4-methylpiperazin-1-yl)ethyl]-7H-pyrrolo[2,3-c]pyridazin-3-yl}phenol dihydrochloride] | 6.00 to 6.52 |
| 6.52 to 7.00 | Cc1cc(Cl)cc(O)c1-c1cc2ccn(CC3CCCCN3C)c2nn1 (stereo not shown) [Compound 14, 5-Chloro-3-methyl-2-{7-[(1-methylpiperidin-2-yl)methyl]-7H-pyrrolo[2,3-c]pyridazin-3-yl}phenol] | 6.52 to 7.00 |
| 6.52 to 7.00 | Cc1cc(Cl)cc(O)c1-c1cc2ccn(CC3CCN(C4COC4)CC3)c2nn1 [Compound 15, 5-Chloro-3-methyl-2-(7-{[1-(oxetan-3-yl)piperidin-4-yl]methyl}-7H-pyrrolo[2,3-c]pyridazin-3-yl)phenol] | 6.52 to 7.00 |
| 6.52 to 7.00 | Cc1cc(Cl)cc(O)c1-c1cc2ccn(CC3CCOC3)c2nn1 (stereo not shown) [Compound 16, 5-Chloro-3-methyl-2-{7-[(oxolan-3-yl)methyl]-7H-pyrrolo[2,3-c]pyridazin-3-yl}phenol] | 6.52 to 7.00 |
| 6.52 to 7.00 | COC(=O)N1CCC(Cn2ccc3cc(-c4c(C)cc(Cl)cc4O)nnc32)CC1 [Compound 17, Methyl 4-{[3-(4-chloro-2-hydroxy-6-methylphenyl)-7H-pyrrolo[2,3-c]pyridazin-7-yl]methyl}piperidine-1-carboxylate] | 6.52 to 7.00 |
| 6.52 to 7.00 | COCCN1CCC(Cn2ccc3cc(-c4c(C)cc(Cl)cc4O)nnc32)CC1 [Compound 18, 5-Chloro-2-(7-{[1-(2-methoxyethyl)piperidin-4-yl]methyl}-7H-pyrrolo[2,3-c]pyridazin-3-yl)-3-methylphenol] | 6.52 to 7.00 |
| 6.00 to 6.52 | CNC(=O)Cn1ccc2cc(-c3c(C)cc(Cl)cc3O)nnc21 [Compound 19, 2-[3-(4-Chloro-2-hydroxy-6-methylphenyl)-7H-pyrrolo[2,3-c]pyridazin-7-yl]-N-methylacetamide] | 6.00 to 6.52 |
| 6.00 to 6.52 | CNC(=O)CCn1ccc2cc(-c3c(C)cc(Cl)cc3O)nnc21 [Compound 20, 3-[3-(4-Chloro-2-hydroxy-6-methylphenyl)-7H-pyrrolo[2,3-c]pyridazin-7-yl]-N-methylpropanamide] | 6.00 to 6.52 |
| 6.00 to 6.52 | COCCn1ccc2cc(-c3c(C)cc(Cl)cc3O)nnc21 [Compound 21, 5-Chloro-2-[7-(2-methoxyethyl)-7H-pyrrolo[2,3-c]pyridazin-3-yl]-3-methylphenol] | 6.52 to 7.00 |
| 6.00 to 6.52 | Cc1cc(Cl)cc(O)c1-c1cc2ccn(CCN(C)C)c2nn1 [Compound 22, 5-Chloro-2-{7-[2-(dimethylamino)ethyl]-7H-pyrrolo[2,3-c]pyridazin-3-yl}-3-methylphenol hydrochloride] | 6.00 to 6.52 |
| 6.00 to 6.52 | COCCCn1ccc2cc(-c3c(C)cc(Cl)cc3O)nnc21 [Compound 23, 5-Chloro-2-[7-(3-methoxypropyl)-7H-pyrrolo[2,3-c]pyridazin-3-yl]-3-methylphenol] | 6.00 to 6.52 |
| 6.52 to 7.00 | Cc1cc(Cl)cc(O)c1-c1cc2ccn(CC3CCCCO3)c2nn1 (stereo not shown) [Compound 25, 5-Chloro-3-methyl-2-{7-[(oxan-2-yl)methyl]-7H-pyrrolo[2,3-c]pyridazin-3-yl}phenol] | 6.52 to 7.00 |
| 6.00 to 6.52 | Cc1cc(Cl)cc(O)c1-c1cc2ccn(CC3CCN(CC#N)CC3)c2nn1 [Compound 26, 2-(4-{[3-(4-Chloro-2-hydroxy-6-methylphenyl)-7H-pyrrolo[2,3-c]pyridazin-7-yl]methyl}piperidin-1-yl)acetonitrile] | 6.00 to 6.52 |
| 6.52 to 7.00 | Cc1cc(Cl)cc(O)c1-c1cc2ccn(CC3(F)CCN(C)CC3)c2nn1 [Compound 27, 5-Chloro-2-{7-[(4-fluoro-1-methylpiperidin-4-yl)methyl]-7H-pyrrolo[2,3-c]pyridazin-3-yl}-3-methylphenol hydrochloride] | 7.00 to 7.52 |
| 6.00 to 6.52 | Cc1cc(Cl)cc(O)c1-c1cc2ccn(CC3CN(C)C3)c2nn1 [Compound 28, 5-Chloro-3-methyl-2-{7-[(1-methylazetidin-3-yl)methyl]-7H-pyrrolo[2,3-c]pyridazin-3-yl}phenol hydrochloride] | 6.00 to 6.52 |
| 5.52 to 6.00 | Cc1cc(Cl)cc(O)c1-c1cc2ccn(CCCN(C)C)c2nn1 [Compound 29, 5-Chloro-2-{7-[3-(dimethylamino)propyl]-7H-pyrrolo[2,3-c]pyridazin-3-yl}-3-methylphenol hydrochloride] | 5.52 to 6.00 |
| 6.00 to 6.52 | Cc1cc(Cl)cc(O)c1-c1cc2ccn(CC(=O)N3CCCC3)c2nn1 [Compound 30, 2-[3-(4-Chloro-2-hydroxy-6-methylphenyl)-7H-pyrrolo[2,3-c]pyridazin-7-yl]-1-(pyrrolidin-1-yl)ethan-1-one] | 6.00 to 6.52 |
| 6.52 to 7.00 | Cc1cc(Cl)cc(O)c1-c1cc2ccn(CC3CCN(S(C)(=O)=O)CC3)c2nn1 [Compound 31, 5-Chloro-2-{7-[(1-methanesulfonylpiperidin-4-yl)methyl]-7H-pyrrolo[2,3-c]pyridazin-3-yl}-3-methylphenol] | 6.52 to 7.00 |
| 6.52 to 7.00 | Cc1cc(Cl)cc(O)c1-c1cc2ccn(CC(=O)N(C)C)c2nn1 [Compound 32, 2-[3-(4-Chloro-2-hydroxy-6-methylphenyl)-7H-pyrrolo[2,3-c]pyridazin-7-yl]-N,N-dimethylacetamide] | 6.52 to 7.00 |
| 6.00 to 6.52 | Cc1cc(Cl)cc(O)c1-c1cc2ccn(CCN3CCCC(F)C3)c2nn1 (stereo not shown) [Compound 33, 5-Chloro-2-{7-[2-(3-fluoropiperidin-1-yl)ethyl]-7H-pyrrolo[2,3-c]pyridazin-3-yl}-3-methylphenol hydrochloride] | 7.00 to 7.52 |
